Results on seven compounds are retold here after publication PMC10766610, “DCAF1-based PROTACs with activity against clinically validated targets overcoming intrinsic- and acquired-degrader resistance” (Nature Communications, 2024).

Series [1] concerns the target T1, DCAF1(WDR) (Homo sapiens, UniProt Q9Y4B6, E1398S).
T1 construct: His6 (C); made in house; host or cells: Sf9 insect cells (baculovirus), co-expressed with BirA
Kind of series: SPR, surface immobilized DCAF1(WDR), binary compound binding. Conditions: for Kd: binary, compound alone, spread in brackets, read-out: SPR KD. Background: Surface plasmon resonance follows binding to a sensor surface in real time, without labels.

The target in series [2] is T1, DCAF1(WDR). Kind of series: DCAF1 TR-FRET competition assay, standard binary format. It counts as binding. The note with it: for IC50: binary. The protocol: Competition assay conditions consist of 20 µL total volume in white 384-well plates (Greiner), in 30 mM phosphate buffer pH 7.4 containing 140 mM NaCl, 0.01% Tween20, 1 mM TCEP and 1% final DMSO. Tested compounds at 14 different concentrations were pre-incubated at 22 °C for 30 min with a large excess of 10 µM human BTK (G389-S659) or 10 µM human BRD9-BD(130-250) in the cooperative assay or with buffer in standard binary assay. […] Samples were then incubated at 22 °C for 30 min before reading using a Tecan infinite M-1000 or PheraStar FSX (excitation 340 nm, emission 490 and 520 nm). DCAF1 protein was omitted in the negative control. IC50 fitting was carried out using an in-house developed software (Novartis Helios software application, unpublished, a publicly available alternative would be e.g., Graphpad Prism) using the methods described by Fomenko et al.[93] (regression algorithms for nonlinear dose-response curve fitting). Following normalization of activity values for the wells to % inhibition (% inhibition = [(high control-sample)/(high control-low control)] × 100). Data analysis could also be carried out using GraphPad Prism without prior normalization. The reported IC50 values are the average of at least two independent experiments.
(In TR-FRET formats the signal depends on donor and acceptor labels being close together.)

Another series deals with T2, BRD9 (Homo sapiens, UniProt Q9H8M2).
T2 sequence (Q9H8M2 1-597): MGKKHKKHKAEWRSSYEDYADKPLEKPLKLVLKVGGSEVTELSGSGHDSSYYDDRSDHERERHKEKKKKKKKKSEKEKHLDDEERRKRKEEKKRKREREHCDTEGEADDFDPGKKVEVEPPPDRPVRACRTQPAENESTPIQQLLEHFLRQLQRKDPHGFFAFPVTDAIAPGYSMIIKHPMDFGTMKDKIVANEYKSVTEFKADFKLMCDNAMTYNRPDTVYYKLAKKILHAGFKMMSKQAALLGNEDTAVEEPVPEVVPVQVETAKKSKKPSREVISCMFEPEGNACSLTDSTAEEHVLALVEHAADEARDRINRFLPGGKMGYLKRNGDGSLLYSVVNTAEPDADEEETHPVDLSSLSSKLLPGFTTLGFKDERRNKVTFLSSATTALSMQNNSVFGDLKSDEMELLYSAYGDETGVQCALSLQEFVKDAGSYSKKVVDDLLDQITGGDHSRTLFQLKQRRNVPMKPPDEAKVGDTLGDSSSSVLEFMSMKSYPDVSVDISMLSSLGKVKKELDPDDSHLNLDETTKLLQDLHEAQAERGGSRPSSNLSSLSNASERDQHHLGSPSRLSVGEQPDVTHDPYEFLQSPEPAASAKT
Put plainly: Rescue of DBr-1 mediated BRD9 degradation by co-treatment, BRD9-HiBiT HEK293 cells. Format: cell-based. The arrangement: host or cells: HEK293/BRD9-HiBiT knock-in; clone and BRD9-HiBiT/CAS9/FF clone. Conditions: (13) 1 µM, OICR8268 10 µM, BI-9564 10 µM. As to the method:
Supplementary figure 4. Competition experiments with DBr-1 and DBr-1-N […]
a) BRD9-HiBiT signal detection of samples pretreated with either DMSO, 10µM OICR-8268, 1µM […]
Data represents average ± standard deviation from n=3 replicates. DC50 values and […]
maximal observed degradation are shown below. […]
b) Cell titer Glow assay of BRD9 HiBiT cells. Cells pretreated with either DMSO, 10µM OICR-8268, […]
Data represents average ± standard deviation from n=3 replicates.
Source data are provided as a Source Data file

In the next series the target is BTK (Homo sapiens, UniProt Q06187). Put plainly: BTK-GFP degradation by flow cytometry in TMD8 BTK-GFP/mCh cells. On the set-up: performed with full-length BTK and endogenous DCAF1; expressed in transfected cells; host or cells: TMD8 cells, lentiviral, blasticidin-selected (TMD8 BTK-GFP/mCh). It counts as cell-based. Conditions: TMD8 BTK-GFP/mCh, 24 h; for DC50: read-out: DC50 BTK-Degradation. The protocol:
The bicistronic pLenti6 BTK-GFP-chysel-mCHERRY expression vector was cloned as described[92] using Gateway cloning with a pENTR-BTK plasmid lacking a STOP codon. TMD8 cells were then infected with lentiviral particles from this vector as described above and stably transfected cells were selected with blasticidin at a concentration of 10 μg/mL referred to as TMD8 BTK-GFP/mCh cells.
(§1) For flow cytometry measurements, 25,000 exponentially growing TMD8 BTK-GFP/mCh cells were plated in 100 μL of each well of a 96-well plate and grown for 24 h. Cells were then dosed with corresponding compounds and doses from 10 mM DMSO stock for 24 h, after which GFP and mCherry fluorescence was read with a Beckmann Coulter Cytoflex. For competition experiment, both compounds were added at the same time and dosed for 24 h. Cells were gated based on Forward & Side Scatter and selection for Single cells using SSC-A vs. SSC-H. Further, the population of viable cells was defined by the forward & side-scatter characteristics of DMSO-treated cells. To confirm cells outside of this population as non-viable, cells were plated and treated for 24 h, washed with PBS and stained for 30 min with two markers of early (Annexin-V) and late (LIVE/DEAD) apoptosis. Effects on viability were measured by the reduction of the percentage of cells included in this viable-population gate with increasing doses of compound tested. Degradation of BTK was calculated based on subtracting background (BG) fluorescence of parental TMD8 signal via (GFP-BG)/(mCherry-BG) of viable cells. Median ratios of three technical (different wells) replicates were used to calculate daily averages. Each compound dose–response was generated via three biological replicates (different days of experiment). Degradation curve parameters (DC50 & Abs. DC50 & max. Deg) were extracted using GraphPad Prism’s 4-parameter logistic curve fitting.

The next series deals with TMD8 BTK-GFP/mCh cells. Kind of series: Viability by FSC/SSC gate (flow cytometry) in TMD8 BTK-GFP/mCh cells. Format: cell-based, human. On the set-up: Max dose w/ Gating Viability >25%: unit: µM. Conditions: TMD8 BTK-GFP/mCh, 24 h. The protocol: as §1, with “To confirm cells outside of this population as non-viable, cells were plated and treated for 24 h, washed with PBS and stained for 30 min with two markers of early (Annexin-V) and late (LIVE/DEAD) apoptosis.” left out
(§2) The viability window was determined by measuring the GI50 of viability based on the percentage of cells included in the viable gate and comparing it to the DC50 of degradation. The fold-change difference describing this window is [GI50 Viability / DC50 Degradation], where values above 1 indicate a positive (lower DC50 degradation than AC50 viability) window.
(In general: Flow cytometry measures light scatter and fluorescence of single cells or particles in a stream.)

Experiment in series [3]: as above
Format: cell-based, human. On the set-up: Max dose w/ Gating Viability >25%: unit: µM. Conditions: human, TMD8 BTK-GFP/mCh cells, TMD8 BTK-GFP/mCh, 24 h. As to the method: as §1, with “To confirm cells outside of this population as non-viable, cells were plated and treated for 24 h, washed with PBS and stained for 30 min with two markers of early (Annexin-V) and late (LIVE/DEAD) apoptosis.” left out
as §2

The next series concerns the target T3, BRD7 (Homo sapiens, UniProt Q9NPI1).
T3 sequence (Q9NPI1 1-651): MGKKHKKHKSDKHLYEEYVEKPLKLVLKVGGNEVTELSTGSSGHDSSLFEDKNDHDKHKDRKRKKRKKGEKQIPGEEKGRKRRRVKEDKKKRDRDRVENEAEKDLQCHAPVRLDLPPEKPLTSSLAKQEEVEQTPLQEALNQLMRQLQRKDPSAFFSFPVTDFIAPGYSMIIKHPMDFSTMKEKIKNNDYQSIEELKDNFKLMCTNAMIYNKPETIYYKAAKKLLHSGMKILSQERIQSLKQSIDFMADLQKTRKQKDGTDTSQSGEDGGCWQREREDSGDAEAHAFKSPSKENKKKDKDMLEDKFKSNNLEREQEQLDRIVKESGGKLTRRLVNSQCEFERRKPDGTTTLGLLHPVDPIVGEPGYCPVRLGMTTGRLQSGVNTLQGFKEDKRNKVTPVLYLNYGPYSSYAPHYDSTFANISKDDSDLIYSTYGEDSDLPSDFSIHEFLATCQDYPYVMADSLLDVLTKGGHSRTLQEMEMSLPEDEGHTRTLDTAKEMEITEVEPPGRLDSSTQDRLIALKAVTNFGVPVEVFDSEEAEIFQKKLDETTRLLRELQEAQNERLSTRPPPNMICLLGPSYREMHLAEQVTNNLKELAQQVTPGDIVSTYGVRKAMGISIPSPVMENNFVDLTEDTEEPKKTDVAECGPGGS
Kind of series: BRD7-HiBiT protein abundance luminescence assay in HEK293 cells. The note with it: read-out: rel. DC50 (BRD7), 2 h.

Setting [4] is: compound alone, spread in brackets, read-out: TR-FRET Q. IC50.

Where two headings read alike, the source gives them in different places.

Sequence of BTK (Q06187 2-659 limits assumed): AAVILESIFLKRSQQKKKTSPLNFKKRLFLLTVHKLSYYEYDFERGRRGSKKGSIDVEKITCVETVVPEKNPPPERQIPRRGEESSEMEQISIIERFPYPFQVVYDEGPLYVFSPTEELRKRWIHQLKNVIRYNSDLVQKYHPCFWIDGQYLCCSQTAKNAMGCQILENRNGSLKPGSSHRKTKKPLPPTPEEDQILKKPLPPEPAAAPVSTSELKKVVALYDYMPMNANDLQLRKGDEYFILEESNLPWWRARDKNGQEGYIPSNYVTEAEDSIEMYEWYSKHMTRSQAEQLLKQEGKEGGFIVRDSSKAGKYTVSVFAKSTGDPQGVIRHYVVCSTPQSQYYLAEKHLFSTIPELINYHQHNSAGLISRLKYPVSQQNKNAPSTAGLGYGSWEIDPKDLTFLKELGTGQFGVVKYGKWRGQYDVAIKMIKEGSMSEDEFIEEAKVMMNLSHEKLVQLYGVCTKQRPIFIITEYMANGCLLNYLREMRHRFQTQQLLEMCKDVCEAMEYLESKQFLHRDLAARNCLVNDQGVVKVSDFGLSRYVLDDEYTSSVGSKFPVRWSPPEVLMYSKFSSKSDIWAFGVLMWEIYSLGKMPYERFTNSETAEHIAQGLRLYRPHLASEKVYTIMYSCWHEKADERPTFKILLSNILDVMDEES
T1 sequence (Q9Y4B6 1073-1399 E1398S): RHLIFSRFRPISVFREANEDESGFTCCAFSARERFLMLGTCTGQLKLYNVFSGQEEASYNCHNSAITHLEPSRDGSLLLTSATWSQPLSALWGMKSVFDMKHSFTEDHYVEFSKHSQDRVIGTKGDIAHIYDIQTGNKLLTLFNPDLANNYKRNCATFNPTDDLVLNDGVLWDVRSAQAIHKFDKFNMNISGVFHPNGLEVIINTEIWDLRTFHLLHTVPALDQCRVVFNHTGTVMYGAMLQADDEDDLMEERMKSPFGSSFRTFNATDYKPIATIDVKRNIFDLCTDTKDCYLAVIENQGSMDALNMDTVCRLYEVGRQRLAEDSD
Excerpt for BRD7: HEK293/BRD9-HiBiT pools (PROMEGA # CS3023120) and HEK293/BRD7-HiBiT pools (PROMEGA # CS3023124) were purchased from Promega. We performed clonal selection for HEK293/BRD9-HiBiT cell line using single-cell sorting and screening for HiBiT expression using Nano-Glo HiBiT Lytic Detection System (Promega # N3030). The HEK293/BRD9-HiBiT clone and HEK293/BRD7-HiBiT pool to perform standard HiBiT assays.

Turning to `COc1cc(-c2cn(C)c(=O)c3cnccc23)c(OC)cc1CN1CCC(OCCCCCC(=O)N2CCN(c3ccc4c(NCCN(C)C)nc(C5(c6ccc(Cl)cc6)CCCCC5)nc4c3)CC2)CC1` [DBr-1-N], the “relative reduction in affinity compared to DBr-1, SPR” value on DCAF1(WDR) [1] amounted to 27 fold. Also, the “relative reduction in affinity compared to DBr-1, TR-FRET” value on DCAF1(WDR) [2] worked out at 41 fold. Also, the IC50 on DCAF1(WDR) [2] (read-out: IC50 in TR-FRET assays (response to reviewers)) came out at 812 nM.
Regarding `NC(=O)C[C@H](NC(=O)c1c[nH]nc1-c1ccc(Cl)cc1F)c1ccc(F)c(Cl)c1` [OICR-8268], at BRD9, the “effect of co-treatment on DBr-1 mediated BRD9 degradation” value is listed as “did not affect the degradation efficacy of DBr-1”.
For `CC(=O)NCCOCCOCCOCCOCCOCCOCCC(=O)N1CCN(c2ccc3c(NCCN)nc(C4(c5ccc(Cl)cc5)CCCC4)nc3c2)CC1` [compound 15], the dissociation constant (Kd) at DCAF1(WDR) [1] amounted to 20 nM. The IC50 at DCAF1(WDR) [2] (setting [4]) was found to be 20 nM.
Regarding `C#CCOCC(=O)N1CCN(c2ccc3c(NCCN)nc(C4(c5ccc(Cl)cc5)CCCCC4)nc3c2)CC1` [compound 16], at DCAF1(WDR) [1], the Kd was found to be 50 nM. Further, the IC50 on DCAF1(WDR) [2] (setting [4]) was 10 nM.
In the case of `Cc1c(NC(=O)c2ccc(C(C)(C)O)cc2F)cc(F)cc1-c1ncnc2[nH]c(-c3ccc(CN4CCC5(CCNCC5)CC4)cc3)cc12` [compound 18, reference compound], the DC50 on BTK is 7890 nM. The “Max dose w/ Gating Viability >25%” value with TMD8 BTK-GFP/mCh cells is reported as 25. For the same compound, the GI50 at 24 h in series [3] (read-out: Abs GI50) worked out at 9540 nM; in series [3] (read-out: GI50), 7560 nM.
As for `Cc1c(NC(=O)N2CC(O)(CC(C)(C)C)C2)cc(F)cc1-c1ncnc2[nH]c(-c3cnn(CC(=O)N4CCC5(CCNCC5)CC4)c3)cc12` [compound 19], at BTK, the “max. BTK degradation (%)” value came to 0% and the DC50 is above 25000 nM. Moreover, the “Max dose w/ Gating Viability >25%” value in the series with TMD8 BTK-GFP/mCh cells was found to be 25. Also, the 50% growth inhibitory concentration (GI50) at 24 h in series [3] (read-out: GI50) was above 25000 nM.
Regarding `COc1cc(-c2cn(C)c(=O)c3cnccc23)c(OC)cc1CN(C)CC(=O)NCCOCCOCCNc1cccc2c1C(=O)N(C1CCC(=O)NC1=O)C2=O` (centres unmarked) [dBRD9], at BRD7, the DC50 is above 10000 nM.

What is called IC50 is the point on the concentration scale where inhibition reaches its midpoint. As usually defined, the Kd is the concentration at which binding is half-saturated. A word on the GI50: it is the concentration giving 50% growth inhibition.
